Data: PubChem BioAssay (NCI)
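Each compound was tested at five concentrations against cells in 96-well plates for 48 hours. TGI denotes the concentration required for complete inhibition of growth.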

What was measured:
Test in all cases: inhibition of tumour cell growth, NCI panel, 48 h
A498 renal = tested on: A498 renal
CCRF-CEM leukemia = tested on: CCRF-CEM leukemia
COLO 205 colon = tested on: COLO 205 colon
HL-60(TB) leukemia = tested on: HL-60(TB) leukemia
HOP-62 NSCLC = tested on: HOP-62 NSCLC
IGROV1 ovarian = tested on: IGROV1 ovarian
KM12 colon = tested on: KM12 colon
M14 melanoma = tested on: M14 melanoma
MDA-N = tested on: MDA-N
NCI-H226 lung = tested on: NCI-H226 lung
SF-268 CNS = tested on: SF-268 CNS
SK-MEL-5 melanoma = tested on: SK-MEL-5 melanoma
SK-OV-3 ovarian = tested on: SK-OV-3 ovarian
SN12C renal = tested on: SN12C renal
SR leukemia = tested on: SR leukemia
SW-620 colon = tested on: SW-620 colon
TK-10 renal = tested on: TK-10 renal
HCT-15 colon = tested on: HCT-15 colon
RPMI-8226 leukemia = tested on: RPMI-8226 leukemia
SK-MEL-2 melanoma = tested on: SK-MEL-2 melanoma

Measured: TGI

CC1C2CC(CC2(C)O)C1(C)C (stereo unspecified)
not listed: HCT-15 colon | RPMI-8226 leukemia | SK-MEL-2 melanoma
> 100 µM: all other assays above

O=C(NNC1=NCCCN1)c1ccco1
not listed: A498 renal
> 100 µM: all other assays above

N#Cc1ccc(-c2nc3c(N)nc(-c4ccccc4)nc3o2)cc1
not listed: CCRF-CEM leukemia | SK-OV-3 ovarian
> 100 µM: all other assays above

Oc1[nH]c(=S)[nH]c1/C=C1/C(c2ccccc2)=Nc2ccccc21
> 100 µM: SF-268 CNS
31.2 µM: HCT-15 colon
38.7 µM: SN12C renal
25.8 µM: SK-MEL-5 melanoma
36.2 µM: RPMI-8226 leukemia
26 µM: SK-MEL-2 melanoma
30.3 µM: IGROV1 ovarian
26.1 µM: HL-60(TB) leukemia
29.1 µM: HOP-62 NSCLC
31.8 µM: COLO 205 colon
29.3 µM: KM12 colon
25.3 µM: A498 renal
44.5 µM: TK-10 renal
31.9 µM: SW-620 colon
35.8 µM: NCI-H226 lung
27.9 µM: SR leukemia
28.4 µM: MDA-N

CCOC(=O)Cc1nnc2n(-c3ccccc3)c(=O)c3ccccc3n12
not listed: RPMI-8226 leukemia
> 100 µM: all other assays above

CC(C)(C)C1CCC2c3c([nH]c4ccccc34)C3C(=O)N(c4ccccc4Cl)C(=O)C3C2C1 (stereo unspecified)
31.6 µM: HCT-15 colon
32.5 µM: HOP-62 NSCLC
22.7 µM: SN12C renal | SW-620 colon
52.6 µM: A498 renal
28.7 µM: SK-MEL-5 melanoma
51.3 µM: TK-10 renal
35 µM: SK-MEL-2 melanoma
29.3 µM: MDA-N
45.7 µM: M14 melanoma
50.5 µM: HL-60(TB) leukemia
35.5 µM: SF-268 CNS
> 100 µM: CCRF-CEM leukemia | IGROV1 ovarian | RPMI-8226 leukemia | SK-OV-3 ovarian | SR leukemia

CCOC(=O)c1ccc(C(=O)n2ccnc2)[nH]1
not listed: SK-OV-3 ovarian
> 100 µM: all other assays above

CC(NCc1c(O)ccc2ccc(=O)oc12)C(=O)O (stereo unspecified)
not listed: A498 renal
> 100 µM: all other assays above

O=C(O)C1(Cc2ccccc2)Cc2cc3c(cc2C1)CCC3
not listed: A498 renal
> 100 µM: all other assays above

CC1(C)C2CCC1(C)C(OC(=O)/C=C/C(=O)OC1CC3CCC1(C)C3(C)C)C2 (stereo unspecified)
40.7 µM: HL-60(TB) leukemia
31.1 µM: CCRF-CEM leukemia
55.7 µM: SR leukemia
not listed: NCI-H226 lung | SK-OV-3 ovarian | RPMI-8226 leukemia
> 100 µM: all other assays above
